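Interpolation was linear, between the two tested concentrations surrounding the appropriate level; five concentrations were tested over 48 hours in 96-well plates. GI50 = concentration required for 50% inhibition of growth. Definition used: TGI = concentration required for complete inhibition of growth.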
Tests used:
Assay in all cases: growth of human tumour cells (NCI), 48 h
MCF7 breast = tested on: MCF7 breast
MOLT-4 leukemia = tested on: MOLT-4 leukemia
HT29 colon = tested on: HT29 colon
EKVX NSCLC = tested on: EKVX NSCLC
NCI-H226 lung = tested on: NCI-H226 lung
SK-MEL-28 melanoma = tested on: SK-MEL-28 melanoma
MDA-MB-435 = tested on: MDA-MB-435
NCI/ADR-RES ovarian = tested on: NCI/ADR-RES ovarian
T-47D breast = tested on: T-47D breast
HCT-116 colon = tested on: HCT-116 colon
MDA-MB-231 breast = tested on: MDA-MB-231 breast
SR leukemia = tested on: SR leukemia
A549 NSCLC = tested on: A549 NSCLC
UO-31 renal = tested on: UO-31 renal
NCI-H522 lung = tested on: NCI-H522 lung
RPMI-8226 leukemia = tested on: RPMI-8226 leukemia
UACC-62 melanoma = tested on: UACC-62 melanoma
SW-620 colon = tested on: SW-620 colon
HL-60(TB) leukemia = tested on: HL-60(TB) leukemia
A498 renal = tested on: A498 renal
MDA-N = tested on: MDA-N
K-562 leukemia = tested on: K-562 leukemia
786-0 renal = tested on: 786-0 renal
OVCAR-3 ovarian = tested on: OVCAR-3 ovarian
CAKI-1 renal = tested on: CAKI-1 renal
SK-OV-3 ovarian = tested on: SK-OV-3 ovarian
RXF 393 renal = tested on: RXF 393 renal
HOP-62 NSCLC = tested on: HOP-62 NSCLC
LOX IMVI melanoma = tested on: LOX IMVI melanoma
OVCAR-5 ovarian = tested on: OVCAR-5 ovarian
NCI-H23 lung = tested on: NCI-H23 lung
SN12C renal = tested on: SN12C renal
SF-268 CNS = tested on: SF-268 CNS
SNB-75 CNS = tested on: SNB-75 CNS
DU-145 prostate = tested on: DU-145 prostate
TK-10 renal = tested on: TK-10 renal
IGROV1 ovarian = tested on: IGROV1 ovarian
MALME-3M melanoma = tested on: MALME-3M melanoma
OVCAR-8 ovarian = tested on: OVCAR-8 ovarian
OVCAR-4 ovarian = tested on: OVCAR-4 ovarian
UACC-257 melanoma = tested on: UACC-257 melanoma
SF-295 CNS = tested on: SF-295 CNS
KM12 colon = tested on: KM12 colon
SK-MEL-5 melanoma = tested on: SK-MEL-5 melanoma
HOP-92 NSCLC = tested on: HOP-92 NSCLC
ACHN renal = tested on: ACHN renal
COLO 205 colon = tested on: COLO 205 colon
HCT-15 colon = tested on: HCT-15 colon
M14 melanoma = tested on: M14 melanoma
SNB-19 CNS = tested on: SNB-19 CNS
NCI-H460 lung = tested on: NCI-H460 lung
SF-539 CNS = tested on: SF-539 CNS
U251 CNS = tested on: U251 CNS
HS 578T breast = tested on: HS 578T breast
CCRF-CEM leukemia = tested on: CCRF-CEM leukemia
BT-549 breast = tested on: BT-549 breast
HCC-2998 colon = tested on: HCC-2998 colon
PC-3 prostate = tested on: PC-3 prostate
SK-MEL-2 melanoma = tested on: SK-MEL-2 melanoma

`N[C@@H](Cc1ccc2oc3cc(=O)c4ccccc4c-3nc2c1)C(=O)O` showed a TGI (MCF7 breast) of 6.79 µM, a TGI (MOLT-4 leukemia) greater than 100 µM and a TGI (HT29 colon) of 96.8 µM. It also gave a TGI (EKVX NSCLC) greater than 100 µM, a TGI (NCI-H226 lung) greater than 100 µM and a TGI (SK-MEL-28 melanoma) greater than 100 µM. For the same compound, the TGI (MDA-MB-435) was 31.7 µM, the TGI (NCI/ADR-RES ovarian) was greater than 100 µM and the TGI (T-47D breast) was greater than 100 µM. For the same compound, the TGI (HCT-116 colon) was greater than 100 µM, the TGI (MDA-MB-231 breast) was greater than 100 µM and the TGI (SR leukemia) was 60.4 µM. For the same compound, the TGI (A549 NSCLC) was greater than 100 µM, the TGI (UO-31 renal) was greater than 100 µM and the TGI (NCI-H522 lung) was greater than 100 µM. For the same compound, the TGI (RPMI-8226 leukemia) was greater than 100 µM, the TGI (UACC-62 melanoma) was 57.9 µM and the TGI (SW-620 colon) was greater than 100 µM. The TGI (HL-60(TB) leukemia) was greater than 100 µM, the TGI (A498 renal) was greater than 100 µM and the TGI (MDA-N) was 38.2 µM. The TGI (K-562 leukemia) was greater than 100 µM, the TGI (786-0 renal) was greater than 100 µM and the TGI (OVCAR-3 ovarian) was greater than 100 µM. For the same compound, the TGI (CAKI-1 renal) was greater than 100 µM, the TGI (SK-OV-3 ovarian) was greater than 100 µM and the TGI (RXF 393 renal) was greater than 100 µM. The TGI (HOP-62 NSCLC) was 48.2 µM, the TGI (LOX IMVI melanoma) was greater than 100 µM and the TGI (OVCAR-5 ovarian) was greater than 100 µM. For the same compound, the TGI (NCI-H23 lung) was 51.3 µM, the TGI (SN12C renal) was greater than 100 µM and the TGI (SF-268 CNS) was greater than 100 µM. It also gave a TGI (SNB-75 CNS) greater than 100 µM, a TGI (DU-145 prostate) of 34.7 µM and a TGI (TK-10 renal) greater than 100 µM. For the same compound, the TGI (IGROV1 ovarian) was greater than 100 µM, the TGI (MALME-3M melanoma) was 11.2 µM and the TGI (OVCAR-8 ovarian) was greater than 100 µM. For the same compound, the TGI (OVCAR-4 ovarian) was greater than 100 µM, the TGI (UACC-257 melanoma) was 42.3 µM and the TGI (SF-295 CNS) was 64 µM. The TGI (KM12 colon) was greater than 100 µM, the TGI (SK-MEL-5 melanoma) was 24.1 µM and the TGI (HOP-92 NSCLC) was greater than 100 µM. The TGI (ACHN renal) was greater than 100 µM, the TGI (COLO 205 colon) was 38.9 µM and the TGI (HCT-15 colon) was greater than 100 µM. It also gave a TGI (M14 melanoma) of 40.9 µM, a TGI (SNB-19 CNS) of 77.6 µM and a TGI (NCI-H460 lung) greater than 100 µM. The TGI (SF-539 CNS) was greater than 100 µM, the TGI (U251 CNS) was greater than 100 µM and the TGI (HS 578T breast) was greater than 100 µM. It also gave a TGI (CCRF-CEM leukemia) greater than 100 µM.
`COc1ccccc1N1CCN(CCCOc2ccc(C(=O)/C=C3/C(=O)Nc4ccccc43)cc2)CC1` gave a GI50 (MCF7 breast) of 7.17 µM, a TGI (MCF7 breast) of 31.8 µM and a GI50 (MOLT-4 leukemia) of 1690 nM. For the same compound, the TGI (MOLT-4 leukemia) was 17.5 µM, the GI50 (HT29 colon) was 3.13 µM and the TGI (HT29 colon) was 12.2 µM. The GI50 (EKVX NSCLC) was 7.34 µM, the TGI (EKVX NSCLC) was 41.2 µM and the GI50 (NCI-H226 lung) was 14.3 µM. For the same compound, the TGI (NCI-H226 lung) was 65.7 µM, the GI50 (BT-549 breast) was 4.42 µM and the TGI (BT-549 breast) was 16.1 µM. It also gave a GI50 (HCC-2998 colon) of 13.9 µM, a TGI (HCC-2998 colon) of 32 µM and a GI50 (SK-MEL-28 melanoma) of 14.6 µM. The TGI (SK-MEL-28 melanoma) was 33.4 µM, the GI50 (MDA-MB-435) was 13.6 µM and the TGI (MDA-MB-435) was 52.3 µM. The GI50 (NCI/ADR-RES ovarian) was 9.53 µM, the TGI (NCI/ADR-RES ovarian) was 40.9 µM and the GI50 (T-47D breast) was 4.73 µM. For the same compound, the TGI (T-47D breast) was greater than 73 µM, the GI50 (HCT-116 colon) was 5.75 µM and the TGI (HCT-116 colon) was 23.5 µM. It also gave a GI50 (MDA-MB-231 breast) of 9.63 µM, a TGI (MDA-MB-231 breast) of 37.6 µM and a GI50 (SR leukemia) of 2570 nM. The TGI (SR leukemia) was 14.4 µM, the GI50 (A549 NSCLC) was 22.1 µM and the TGI (A549 NSCLC) was greater than 100 µM. For the same compound, the GI50 (UO-31 renal) was 16.3 µM, the TGI (UO-31 renal) was greater than 100 µM and the GI50 (NCI-H522 lung) was 11.9 µM. The TGI (NCI-H522 lung) was 34.4 µM, the GI50 (RPMI-8226 leukemia) was 2600 nM and the TGI (RPMI-8226 leukemia) was 28.6 µM. It also gave a GI50 (UACC-62 melanoma) of 11.9 µM, a TGI (UACC-62 melanoma) of 28.4 µM and a GI50 (SW-620 colon) of 12.6 µM. The TGI (SW-620 colon) was 25.5 µM, the GI50 (HL-60(TB) leukemia) was 6.09 µM and the TGI (HL-60(TB) leukemia) was 27.2 µM. For the same compound, the GI50 (A498 renal) was 19.3 µM, the TGI (A498 renal) was 70.5 µM and the GI50 (K-562 leukemia) was 3.51 µM. For the same compound, the TGI (K-562 leukemia) was greater than 34.8 µM, the GI50 (786-0 renal) was 19.7 µM and the TGI (786-0 renal) was greater than 70 µM. The GI50 (OVCAR-3 ovarian) was 7.37 µM, the TGI (OVCAR-3 ovarian) was 42.3 µM and the GI50 (CAKI-1 renal) was 15.5 µM. The TGI (CAKI-1 renal) was greater than 62.8 µM, the GI50 (SK-OV-3 ovarian) was 28.2 µM and the TGI (SK-OV-3 ovarian) was greater than 100 µM. It also gave a GI50 (RXF 393 renal) of 11.2 µM, a TGI (RXF 393 renal) of 27.5 µM and a GI50 (HOP-62 NSCLC) of 16.1 µM. For the same compound, the TGI (HOP-62 NSCLC) was 54.8 µM, the GI50 (LOX IMVI melanoma) was 11.8 µM and the TGI (LOX IMVI melanoma) was 26.4 µM. It also gave a GI50 (OVCAR-5 ovarian) of 16.6 µM, a TGI (OVCAR-5 ovarian) of 59.9 µM and a GI50 (NCI-H23 lung) of 6.19 µM. It also gave a TGI (NCI-H23 lung) of 38.6 µM, a GI50 (SN12C renal) of 19.9 µM and a TGI (SN12C renal) greater than 100 µM. It also gave a GI50 (SF-268 CNS) of 16.8 µM, a TGI (SF-268 CNS) of 47.3 µM and a GI50 (SNB-75 CNS) of 14.9 µM. It also gave a TGI (SNB-75 CNS) of 43.9 µM, a GI50 (DU-145 prostate) of 15 µM and a TGI (DU-145 prostate) of 38.1 µM. The GI50 (TK-10 renal) was 12.3 µM, the TGI (TK-10 renal) was greater than 67.7 µM and the GI50 (IGROV1 ovarian) was 12.1 µM. The TGI (IGROV1 ovarian) was 37.6 µM, the GI50 (MALME-3M melanoma) was 589 nM and the TGI (MALME-3M melanoma) was 22.9 µM. It also gave a GI50 (OVCAR-8 ovarian) of 12 µM, a TGI (OVCAR-8 ovarian) of 55.5 µM and a GI50 (OVCAR-4 ovarian) of 6.6 µM. It also gave a TGI (OVCAR-4 ovarian) of 51.2 µM, a GI50 (UACC-257 melanoma) of 9.79 µM and a TGI (UACC-257 melanoma) of 35.5 µM. It also gave a GI50 (SF-295 CNS) of 12.5 µM, a TGI (SF-295 CNS) of 32.4 µM and a GI50 (KM12 colon) of 8.2 µM. It also gave a TGI (KM12 colon) of 24.8 µM, a GI50 (SK-MEL-5 melanoma) of 6.9 µM and a TGI (SK-MEL-5 melanoma) of 18.4 µM. The GI50 (HOP-92 NSCLC) was 2590 nM, the TGI (HOP-92 NSCLC) was 22.2 µM and the GI50 (ACHN renal) was 15.9 µM. The TGI (ACHN renal) was greater than 77.6 µM, the GI50 (COLO 205 colon) was 12.7 µM and the TGI (COLO 205 colon) was 33.2 µM. The GI50 (HCT-15 colon) was 7.88 µM, the TGI (HCT-15 colon) was greater than 68.1 µM and the GI50 (M14 melanoma) was 11 µM. For the same compound, the TGI (M14 melanoma) was 27 µM, the GI50 (SNB-19 CNS) was 40.6 µM and the TGI (SNB-19 CNS) was greater than 100 µM. The GI50 (PC-3 prostate) was 12 µM, the TGI (PC-3 prostate) was greater than 100 µM and the GI50 (SK-MEL-2 melanoma) was 5.54 µM. For the same compound, the TGI (SK-MEL-2 melanoma) was greater than 80.4 µM, the GI50 (NCI-H460 lung) was 13.5 µM and the TGI (NCI-H460 lung) was 65.5 µM. The GI50 (SF-539 CNS) was 15.8 µM, the TGI (SF-539 CNS) was 40.4 µM and the GI50 (U251 CNS) was 15.4 µM. The TGI (U251 CNS) was 63.7 µM, the GI50 (HS 578T breast) was 22.5 µM and the TGI (HS 578T breast) was greater than 52.7 µM. For the same compound, the GI50 (CCRF-CEM leukemia) was 3.07 µM and the TGI (CCRF-CEM leukemia) was greater than 43.2 µM.

— PubChem BioAssay (NCI)
